Measurements as given in ChEMBL document CHEMBL3988442, “University of Dundee, Small-Polar-MMV Screening Library” (2021).
Where “and” joins values, the source holds several entries; their conditions need not be identical. Identical values can stand only once.

Tests used:
Plasmodium falciparum = experiment: Calibr Malaria Delayed Death Assay SOP; assay type: functional, organism-based; conditions: for IC50: Plasmodium falciparum
[1] = microbe, parasite or virus in culture; conditions: Mycobacterium tuberculosis, 72 h, read-out: pIC50 (converted)
[2] = microbe, parasite or virus in culture; conditions: Mycobacterium tuberculosis, 96 h, read-out: pIC50 (converted)

SMILES | pIC50 (Plasmodium falciparum) | IC50 (Plasmodium falciparum) | IC50 [1] | IC50 [2]
O=C(c1ccc(F)c(Cl)c1)N1C[C@@H]2CC[C@H](C1)N(Cc1ccccc1)C2 | 5.941 | 0.758 µM |  | 
O=C(c1scc2c1OCCO2)N1CCOC(CCc2ccccc2)C1 (stereo not drawn) | 6.32 | 0.386 µM |  | 
COCCOc1ccccc1CNCC1COC2(CCCC2)O1 (stereo not drawn) | 6.238 | 0.727 µM |  | 
CN1CCC(N(C)c2ccccc2CNCc2ccco2)CC1 | 6.649 | 0.157 µM |  | 
c1cnnc(N2CCCC2CNc2ncnc3sccc23)c1 (stereo not drawn) | 5.797 | 1.26 µM |  | 
COc1cc(CNCC(O)c2cccc(F)c2)cc2c1OCO2.Cl (stereo not drawn) | 6.133 | 0.729 µM |  | 
CCN1CCCN(S(=O)(=O)c2cc3ccccc3o2)CC1 | 6.321 | 0.532 µM |  | 
CCN1CC(c2ccccc2)CC2(CCN(Cc3ncc[nH]3)CC2)C1 (stereo not drawn) | 6.147 | 0.799 µM |  | 
CCc1ncc2c(n1)CN(CC(=O)Nc1ccc(Cl)cn1)CC2 | 5.772 | 1.24 µM |  | 
CN1CCn2c(-c3cccc(F)c3)cnc2C12CCN(CC1CC1)CC2.O=C(O)C(F)(F)F.O=C(O)C(F)(F)F.O=C(O)C(F)(F)F | 6.083 | 1.1 µM |  | 
Br.Cc1cc(C)c(N(CC(O)CNCc2ccccc2)S(C)(=O)=O)c(C)c1 (stereo not drawn) | 6.525 | 0.355 µM |  | 
c1ccc(CCCN2CCN(c3ccc4nncn4n3)CC2)cc1 | 5.983 | 1.41 µM |  | 
Cc1noc(C)c1CNCc1ccccc1N(C)C1CCN(C)CC1 | 6.243 | 0.489 µM |  | 
COc1ccc2[nH]c(C[C@@H]3C[C@@H](C(C)C)[C@H](CN(C)C)C=C3C)nc2c1 | 6.245 | 0.615 µM |  | 
O=S(=O)(NCC(c1ccsc1)N1CCCCCC1)c1cccs1 (stereo not drawn) | 6.118 | 0.904 µM |  | 
Fc1cnc(N2CCCC3(CCN(Cc4ccoc4)C3)C2)nc1.O=C(O)C(F)(F)F.O=C(O)C(F)(F)F (stereo not drawn) | 5.93 | 1.21 µM |  | 
CC(C)(C)n1cc(C2=CCN(CCN3CCCCCC3)CC2)cn1 | 5.987 | 0.994 µM |  | 
c1cc(-c2n[nH]cc2-c2ccnc(N3CCCCCC3)n2)ccn1 | 8.34 | 0.00412 µM |  | 
CC1(C)CC(N(Cc2cccnc2)Cc2cccc(F)c2)CC(C)(C)N1.O=C(O)CC(O)(CC(=O)O)C(=O)O | 6.708 | 0.291 µM |  | 
I.c1cc2c(cc1C1(CNC3=NCCN3)CCCC1)OCCO2 | 6.321 | 0.547 µM |  | 
COc1ccc(Cn2nnnc2SCC2CCCN(C)C2)cc1 (stereo not drawn) | 5.834 | 1.09 µM |  | 
Cc1ccccc1CNCC(O)c1ccc(OC(C)C)cc1 (stereo not drawn) | 6.206 | 0.637 µM |  | 
CSc1ccc(-c2nc(CN3CCC(CN)C3)c(C)o2)cc1 (stereo not drawn) | 5.962 and 5.805 and 6.058 | 1.02 µM |  | 
O=C(Nc1nccs1)C1CCCN1Cc1ccccn1 (stereo not drawn) | 6.607 | 0.229 µM |  | 

SMILES | pIC50 (Plasmodium falciparum) | IC50 (Plasmodium falciparum) | IC50 [1] | IC50 [2]
Cc1ccc(CN2CCC3(CC2)CCN(Cc2ccco2)CC3)cc1.O=C(O)C(F)(F)F.O=C(O)C(F)(F)F | 6.236 | 0.555 µM |  | 
CC(NCC1CCN(CCO)CC1)c1ccc(F)c(Cl)c1 (stereo not drawn) | 6.184 | 0.758 µM |  | 
Fc1ccc(Nc2ccc(C3CCN(Cc4ncc[nH]4)CC3)nc2)nc1 | 6.119 | 0.987 µM |  | 
O=C(CN1CCCC(c2ccn[nH]2)C1)Nc1nc2c(s1)CCCC2 (stereo not drawn) | 6.624 | 0.248 µM |  | 
Cl.Fc1ccccc1Cn1c(C2CCNCC2)cc2cccnc21 | 6.466 | 0.293 µM |  | 
Cc1ccc(CN(Cc2ccccn2)C2CC(C)(C)NC(C)(C)C2)s1.O=C(O)CC(O)(CC(=O)O)C(=O)O | 6.418 | 0.432 µM |  | 
COCC(O)CN(C)c1ccnc2cc(Br)ccc12 (stereo not drawn) | 6.091 | 0.834 µM |  | 
CC(C)(C)C(=O)NCCNCc1ccc(Cl)c2cccnc12 | 6.099 | 0.703 µM |  | 
COc1ccc(CCC(=O)NCCN2CCC(c3cccs3)CC2)cc1 | 6.185 | 0.781 µM |  | 
CC1(C)CC(N(Cc2ccccc2)Cc2cccnc2)CC(C)(C)N1.O=C(O)CC(O)(CC(=O)O)C(=O)O | 5.927 | 0.602 µM |  | 
O=C(c1ccccc1)C1CCN(Cc2cc3c(cc2O)CCC3)CC1 | 6.259 | 0.613 µM |  | 
NCC(c1ccccc1)N1CCc2sccc2C1 (stereo not drawn) | 6.206 | 0.699 µM |  | 
CCCOc1ccccc1CN[C@@H]1CCC[C@H]1Cc1cc(C)no1.O=C(O)CC(O)(CC(=O)O)C(=O)O | 5.985 | 1.23 µM |  | 
CC(C)Cc1nnc(NCc2ccsc2)o1 |  |  | 3.95 µM | 35.4 µM
OCC(O)CSCc1nc(-c2ccc(Cl)cc2)no1 (stereo not drawn) |  |  | 385 µM | 260 µM
OCC(O)CSCCc1ccccc1Cl (stereo not drawn) |  |  | 136 µM | 473 µM
Cc1ccc(NC2CCCN(Cc3ccc(Cl)cc3)C2)nn1 (stereo not drawn) |  |  | 7.35 µM | 6.67 µM
CC(CO)Sc1ccc(S(=O)(=O)C(F)F)cc1 (stereo not drawn) |  |  | 459 µM | 158 µM
O=C(NC[C@H]1CC[C@H](c2ccnc3ncnn32)CC1)C1CC1 |  |  | > 50.1 µM | > 50.1 µM
FC(F)(F)c1ccc(-c2cnc(C3CCCN3)cn2)cc1 (stereo not drawn) |  |  | 13.9 µM | 2.02 µM
Cc1nnc(SCCC(=O)N(C)Cc2ccc(Cl)s2)[nH]1 |  |  | > 50.1 µM | 27.3 µM
Cc1c[nH]c(C(=O)NC2COc3ccccc3C2)n1 (stereo not drawn) |  |  | > 501 µM | > 501 µM
COc1ccc(C(O)CNC(=O)Nc2nncs2)cc1 (stereo not drawn) |  |  | 195 µM | 380 µM
CC(C)(C)OC(=O)N1CCC(n2cc(N)cn2)CC1 |  |  | 202 µM | 287 µM

SMILES | pIC50 (Plasmodium falciparum) | IC50 (Plasmodium falciparum) | IC50 [1] | IC50 [2]
Cc1c(C(=O)NC2=NCCS2)oc2ccccc12 |  |  | 279 µM | 247 µM
O=C(CCC(F)(F)F)N1CCCC(CO)(CC2CC2)C1 (stereo not drawn) |  |  | 2.54 µM | 4.11 µM
CCc1nc(CN2CCCN(Cc3noc(C4CC4)n3)CC2)cs1 |  |  | > 50.1 µM | > 50.1 µM
O=C(c1ccco1)N1CCCN(Cc2cscn2)CC1 |  |  | > 501 µM | > 501 µM
CCNc1ncc(C(=O)N2CCC(c3ccccc3C(=O)O)C2)cn1 (stereo not drawn) |  |  | > 50.1 µM | > 50.1 µM
Cc1n[nH]c(C)c1CN(C)C(C(=O)O)c1c(F)cccc1OC(C)C (stereo not drawn) |  |  | > 50.1 µM | > 50.1 µM
CCc1nc2n(n1)CC(NCc1nc(C)c(C)o1)CC2 (stereo not drawn) |  |  | > 50.1 µM | > 50.1 µM
CCOCCN1CCN(Cc2nnc(OCC)s2)CC1 |  |  | > 501 µM | > 501 µM
Cn1cc(NC(=O)C2=Cc3ccccc3OC2)cn1 |  |  | > 501 µM | > 501 µM
O=C(NCC1CC1)c1nnc2ccc(Cl)cc2n1 |  |  | 5.59 µM | 11.4 µM
CN(Cc1ccsc1)Cc1ccc(S(=O)(=O)N(C)C)o1 |  |  | > 501 µM | 86.4 µM
CC(C)(C)OC(=O)N1CC(F)(F)CC1CO (stereo not drawn) |  |  | > 501 µM | > 501 µM
Cc1ccc(OCC(=O)Nc2nnn(C)n2)cc1 |  |  | 274 µM | > 501 µM
OCCC1COc2ccc(F)cc2N1 (stereo not drawn) |  |  | > 501 µM | > 501 µM
Cc1ccc(-c2noc([C@@H]3Cc4nc[nH]c4CN3)n2)cc1 |  |  | 1.94 µM | 2.31 µM
NCC(=O)N1CCCC(COc2ccc(F)cc2)C1 (stereo not drawn) |  |  | 220 µM | > 501 µM
Cc1ccc(CN2CCC3(CC(=O)N(c4cccc(F)c4)C3)C2)o1 (stereo not drawn) |  |  | 20.3 µM | > 50.1 µM
COc1ccc(CCN2CCCNCC2)cc1 |  |  | 73.3 µM | 159 µM
CC(=O)N1CCc2onc(-c3ccc(F)c(F)c3)c2C1 |  |  | 393 µM | 262 µM
CC(CN1CCOCC1)NC(=O)c1csc(Br)c1 (stereo not drawn) |  |  | 102 µM | 205 µM
CS(=O)(=O)NCc1ccnc(Oc2ccc(F)cc2)c1 |  |  | 154 µM | > 501 µM
Clc1ccc(-c2nnc([C@H]3CCN(C4CCCCC4)C3)o2)cc1 |  |  | 7.04 µM | 24.2 µM
CCc1cc(N(C)Cc2ccncn2)n2nc(C)c(C)c2n1 |  |  | 33.8 µM | 14.2 µM
CCCC(C)NC(=O)c1coc(C)n1 (stereo not drawn) |  |  | > 501 µM | > 501 µM

SMILES | pIC50 (Plasmodium falciparum) | IC50 (Plasmodium falciparum) | IC50 [1] | IC50 [2]
NCc1cccc(S(=O)(=O)NCc2cccc(F)c2)c1 |  |  | 232 µM | > 501 µM
NCCNS(=O)(=O)c1ccc(F)c(C(F)(F)F)c1 |  |  | 476 µM | > 501 µM
c1ccc(NCCNc2ccccn2)cc1 |  |  | 230 µM | 217 µM
Cc1ccc(N(CC(=O)c2ccc(Br)cc2)C2=NCCCCC2)cc1 |  |  | 11.1 µM | 23.1 µM
Cc1cc2[nH]c(O)nc2cc1NCc1ccc(F)cc1 |  |  | 24.3 µM | > 50.1 µM
CCOCCNC(=O)Nc1ccc(OCc2noc(C3CC3)n2)cc1 |  |  | > 50.1 µM | > 50.1 µM
Cc1cccc(NC(=O)CN(C)Cc2nnsc2Cl)n1 |  |  | 246 µM | > 501 µM
O=C(c1cscn1)N1CCN(c2ccc(Cl)cn2)CC1 |  |  | 116 µM | 249 µM
N[C@@H]1CCN(Cc2cc(F)cc(C(F)(F)F)c2)C[C@H]1O |  |  | 266 µM | > 501 µM
CCCc1nc(N2CCCCC2)c2c(n1)c(C)nn2CC |  |  | 38.4 µM | 39.3 µM
Cc1nc(CN2CCCC(CCc3ccccc3C(F)(F)F)C2)no1 (stereo not drawn) |  |  | 28.7 µM | 26.2 µM
CN1CCCN(C(=O)c2ccco2)c2ccccc21 |  |  | 119 µM | 191 µM
OCCCNc1cccc(Cl)c1-n1cccn1 |  |  | 183 µM | > 501 µM
CC(OC(=O)c1ccc(C(F)(F)F)cc1)C(N)=O (stereo not drawn) |  |  | 229 µM | 466 µM
O=C(Nc1nnc(-c2cccs2)s1)NC1CCCNC1 (stereo not drawn) |  |  | 127 µM | > 501 µM
CCOc1ccc(-c2cc(N)[nH]n2)cc1 |  |  | 232 µM | > 501 µM
O=C(c1[nH]nc(C2CC2)c1Cl)N1CCCC1 |  |  | > 50.1 µM | > 50.1 µM
NC(=O)CSc1nnc(-c2cc(Br)ccc2O)[nH]1 |  |  | 210 µM | 247 µM
COCCC(CO)NC(=O)c1cnn(C(C)C)c1C (stereo not drawn) |  |  | 110 µM | 124 µM
Cc1cnn(C2CN(c3ccccc3S(=O)(=O)C(F)(F)F)C2)c1 |  |  | 10.2 µM | 29.4 µM
N#CCCCn1nnc(-c2ccccc2)n1 |  |  | 191 µM | 178 µM
O=C(CCCc1ccccc1)NCc1ccccn1 |  |  | 168 µM | 234 µM
